Consider eleven compounds from ChEMBL document CHEMBL3045140, “Synthesis, docking studies and antioxidant activity of some chalcone and aurone derivatives” (Med Chem Res, 2013).

What all share (assay type): functional
For assay [1], the system named is Radical scavenging activity. The experiment in a line: Antioxidant activity assessed as DPPH free radical scavenging activity after 30 min by spectrophotometeric analysis.
The nature of assay [2]: Antioxidant activity assessed as iron chelating activity after 10 min by spectrophotometeric analysis.
Assay [3] is described as follows: Antioxidant activity assessed as H2O2 scavenging activity after 10 min by spectrophotometeric analysis.
A short description of assay [4]: Antioxidant activity assessed as reduction of Fe3+ to Fe2+ after 20 min by spectrophotometeric analysis.

In brackets after ≈: the same amount, converted by molar mass.

In the case of `CN(C)c1ccc(/C=C2\Oc3ccc(O)cc3C2=O)cc1`, the Activity entry in assay [1] and in assay [3] was “Dose-dependent effect” each time. Further, the IC50 in assay [1] was determined as 243 µg/mL (≈ 864 µM); in assay [2], 149.98 µg/mL (≈ 533 µM); in assay [3] it was 174.07 µg/mL (≈ 619 µM); in assay [4], 64.16 µg/mL (≈ 228 µM).

As to `COc1ccc(/C=C/C(=O)c2ccc(O)cc2O)cc1OC`, the Activity entry in assay [1] and in assay [3] was “Dose-dependent effect” throughout. In addition, the IC50 in assay [1] turned out to be 35.2 µg/mL (≈ 117 µM); in assay [2], 166.73 µg/mL (≈ 555 µM); in assay [3], 70.1 µg/mL (≈ 233 µM); in assay [4], 134.45 µg/mL (≈ 448 µM).

On to `O=C1/C(=C/c2ccc(Cl)cc2)Oc2cc(O)ccc21` [6-HYDROXY-4'-CHLORO AURONE], for which the Activity result in assay [1] and in assay [3] was “Dose-dependent effect” each time. In addition, the half-inhibitory concentration (IC50) was found to be 266.12 µg/mL (≈ 976 µM) in assay [1], 179.18 µg/mL (≈ 657 µM) in assay [2], 178.13 µg/mL (≈ 653 µM) in assay [3] and 188.31 µg/mL (≈ 691 µM) in assay [4].

Take `O=C(/C=C/c1ccc(Cl)cc1)c1ccc(O)cc1O`: the Activity entry in assay [1] and in assay [3] was “Dose-dependent effect” in each case. The IC50 in assay [1] turned out to be 264.95 µg/mL (≈ 964 µM); in assay [2] it was 159.97 µg/mL (≈ 582 µM); in assay [3] it was 129.02 µg/mL (≈ 470 µM); in assay [4], 155.87 µg/mL (≈ 567 µM).

Turning to `O=C1O[C@H]([C@@H](O)CO)C(O)=C1O` [ASCORBIC ACID], the 50% inhibitory concentration (IC50) in assay [1] turned out to be 98.77 µg/mL (≈ 561 µM); in assay [2] it was 126.12 µg/mL (≈ 716 µM); in assay [3] it was 445.92 µg/mL (≈ 2530 µM); in assay [4] it was 53.24 µg/mL (≈ 302 µM).

As to `COc1ccc(/C=C2\Oc3ccc(O)cc3C2=O)cc1OC` [5-HYDROXY-3',4'-DIMETHOXY AURONE], the Activity result in assay [1] and in assay [3] was “Dose-dependent effect” in each case. For the same compound, the IC50 in assay [1] turned out to be 222.19 µg/mL (≈ 745 µM); in assay [2], 185.05 µg/mL (≈ 620 µM); in assay [3], 206.57 µg/mL (≈ 693 µM); in assay [4] it was 151.43 µg/mL (≈ 508 µM).

On to `CN(C)c1ccc(/C=C/C(=O)c2cc(O)ccc2O)cc1`, for which the Activity entry in assay [1] and in assay [3] was “Dose-dependent effect” in each case. Moreover, the IC50 in assay [1] turned out to be 24.32 µg/mL (≈ 85.8 µM); in assay [2] it was 90.81 µg/mL (≈ 321 µM); in assay [3] it was 153.85 µg/mL (≈ 543 µM); in assay [4], 47.79 µg/mL (≈ 169 µM).

With `CN(C)c1ccc(/C=C/C(=O)c2ccc(O)cc2O)cc1`, the Activity entry in assay [1] and in assay [3] was “Dose-dependent effect” in each case. In addition, the concentration for half-maximal inhibition (IC50) is 65.8 µg/mL (≈ 232 µM) in assay [1], 140.16 µg/mL (≈ 495 µM) in assay [2], 135.88 µg/mL (≈ 480 µM) in assay [3] and 53.6 µg/mL (≈ 189 µM) in assay [4].

For `COc1ccc(/C=C2\Oc3cc(O)ccc3C2=O)cc1OC`, the Activity result in assay [1] and in assay [3] was “Dose-dependent effect” each time. Moreover, the IC50 in assay [1] turned out to be 173.29 µg/mL (≈ 581 µM); in assay [2], 213.83 µg/mL (≈ 717 µM); in assay [3], 248.16 µg/mL (≈ 832 µM); in assay [4], 168.23 µg/mL (≈ 564 µM).

On to `CN(C)c1ccc(/C=C2\Oc3cc(O)ccc3C2=O)cc1`, for which the Activity result in assay [1] and in assay [3] was “Dose-dependent effect” throughout. Further, the IC50 in assay [1] was determined as 109.92 µg/mL (≈ 391 µM); in assay [2], 179.33 µg/mL (≈ 637 µM); in assay [3], 193.91 µg/mL (≈ 689 µM); in assay [4], 70.1 µg/mL (≈ 249 µM).

For `COc1ccc(/C=C/C(=O)c2cc(O)ccc2O)cc1OC`, the Activity result in assay [1] and in assay [3] was “Dose-dependent effect” in each case. The IC50 in assay [1] came to 132.22 µg/mL (≈ 440 µM); in assay [2], 159.22 µg/mL (≈ 530 µM); in assay [3], 89.59 µg/mL (≈ 298 µM); in assay [4] it was 111.79 µg/mL (≈ 372 µM).
